Experimental data reported in US6610248B1, “Disinfectants” (Lonza AG, priority 1999, dated 2003).

Columns and labels:
[1] = tested on: Staphylococcus aureus ATCC 6538; assay: Quantitative suspension test EN 1276; format: cell-based; conditions: contact time 5 min, water hardness 300 mg/kg CaCO3, 20° C.
Method: (§1) As specified by standard EN 1276, the efficacy of N,N-bis (3-aminopropyl)octylamine (according to the invention) and N,N-bis (3-aminopropyl)dodecylamine (comparison) was determined in the presence of albumin for various test microorganisms. [table]

[2] = tested on: Pseudomonas aeruginosa ATCC 15442; assay: Quantitative suspension test EN 1276; format: cell-based; conditions: contact time 5 min, water hardness 300 mg/kg CaCO3, 20° C.
Method: as §1

[3] = tested on: Escherichia coli ATCC 10536; assay: Quantitative suspension test EN 1276; format: cell-based; conditions: contact time 5 min, water hardness 300 mg/kg CaCO3, 20° C.
Method: as §1

[4] = tested on: Enterococcus hirae ATCC 8043; assay: Quantitative suspension test EN 1276; format: cell-based; conditions: contact time 5 min, water hardness 300 mg/kg CaCO3, 20° C.
Method: as §1

[5] = Determination of foaming (shaken mixing cylinder, foam volume read off); format: physicochemical; conditions: 250 ppm in demineralized water, 20° C.
Method: A 250 ml mixing cylinder was filled with 100 ml of solution. After any foam formed in the course of this had disappeared, the sealed cylinder was shaken vigorously vertically for 15 s (approximately 15×) and then placed on a flat support. The volume of the resultant foam was read off at regular time intervals.

[6] = tested on: Mycobacterium terrae ATCC 15755; assay: Quantitative suspension test using Mycobacterium terrae (Hygiene & Medizin 1997 method); format: cell-based; conditions: 0.3% active compound, 20° C., contact time 15 min
Method: Using the method described in Hygiene & Medizin 1997, 22, pp. 278-283, the activity of N,N-bis(3-amino-propyl)octylamine against Mycobacterium terrae ATCC 15755 was determined under differing organic loads. The concentration of active compound was in each case 0.3%, the temperature 20° C. and the contact time 15 min. The common logarithmic reduction in bacterial count was determined each time.

For `CCCCCCCCCCCCN(CCCN)CCCN` [N,N-bis(3-aminopropyl)dodecylamine, reference compound], which “concentration for log. reduction >5” value ([1]; 0.03% albumin) is on record?
The value was 0.05%.

And the “concentration for log. reduction >5” value ([1]; 0.3% albumin)?
The value was 0.10%.

And the “concentration for log. reduction >5” value ([2]; 0.03% albumin)?
Its value is 0.025%.

And the “concentration for log. reduction >5” value ([2]; 0.3% albumin)?
The value was 0.50%.

And the “concentration for log. reduction >5” value ([3]; 0.03% albumin)?
Its value is 0.025%.

And the “concentration for log. reduction >5” value ([3]; 0.3% albumin)?
Its value is 0.025%.

And the “concentration for log. reduction >5” value ([4]; 0.03% albumin)?
Its value is 0.05%.

What about the “concentration for log. reduction >5” value ([4]; 0.3% albumin) of the same molecule?
Its value is 0.05%.

And the “foam volume after 10 s” value [5]?
Its value is 140 mL.

What about the “foam volume after 60 s” value [5] of the same molecule?
Its value is 120 mL.

With `CCCCCCCCN(CCCN)CCCN` [N,N-bis(3-aminopropyl)octylamine] as the molecule, how does the “concentration for log. reduction >5” value ([1]; 0.03% albumin) read?
The value was 0.10%.

What about the “concentration for log. reduction >5” value ([1]; 0.3% albumin) of the same molecule?
The value was 0.10%.

And the “concentration for log. reduction >5” value ([2]; 0.03% albumin)?
Its value is 0.05%.

What about the “concentration for log. reduction >5” value ([2]; 0.3% albumin) of the same molecule?
The value was 0.10%.

What about the “concentration for log. reduction >5” value ([3]; 0.03% albumin) of the same molecule?
Its value is 0.05%.

What about the “concentration for log. reduction >5” value ([3]; 0.3% albumin) of the same molecule?
The value was 0.05%.

What about the “concentration for log. reduction >5” value ([4]; 0.03% albumin) of the same molecule?
The value was 0.10%.

And the “concentration for log. reduction >5” value ([4]; 0.3% albumin)?
Its value is 0.05%.

And the “Log reduction in bacterial count” value ([6]; load: 0.3% albumin)?
Its value is 4.09.

And the “Log reduction in bacterial count” value ([6]; load: 0.5% sheep's blood)?
Its value is 4.48.

What about the “Log reduction in bacterial count” value ([6]; load: none) of the same molecule?
Its value is 4.33.

What about the “foam volume after 10 s” value [5] of the same molecule?
The value was 20 mL.

What about the “foam volume after 60 s” value [5] of the same molecule?
Its value is “virtually completely disappeared”.

And the “foam volume after a further 10 s” value ([5]; relative to volume at 10 s)?
Its value is “decreased to half”.
